# According to patent US6407073B1, “Use of coumarin derivatives for the treatment of digestive tract disorders” (Bio-Monde Preparations Limited, priority 1997, dated 2002):
# Marks after values point to notes of the source that are not given here.
# Legend:
# [1] = system: mice with AAP-induced hepatotoxicity; assay: Survival of mice with acetaminophen (AAP)-induced hepatotoxicity; assay type: in vivo, CBA/H Zgr inbred mice; conditions: for No of dead mice/Total No of mice / Mortality (%): 48 hours; for mortality in comparison with control mice given saline: 250 mg/kg
# Description: The hepatoprotective effect of a composition in accordance with the invention was investigated in mice with acetaminophen (paracetamol) induced hepatotoxicity.
# CBA/H Zgr inbred mice were raised in an animal colony unit. Mice of both sexes aged 3 to 4 month were used in the experiments. Mice were maintained under standard laboratory conditions, fed with commercially available murine food pellets and allowed water ad libitum.
# The procedure of Guarner was followed (see Hepatology 1988; 3:248-53). To induce hepatic drug-metabolising enzymes, mice were given phenobarbitone-sodium in drinking water for 7 days (0.3 g/L). Thereafter, mice were fasted overnight. […]
# The above ingredients were dissolved in phosphate buffered saline (PBS) to which several drops of Tween 20™ (polyoxyethylene 20 sorbitan monolaurate) were added (50 μl/ml). The resulting white milk suspension was administered to mice intraperitoneally.
# At the same time, control animals were given 0.5 ml of pyrogen-free saline to which several drops of Tween 20™ (50 μl/ml) were added.
# Acetaminophen, dissolved in heated PBS, was given intragastrically, by stomach tube, in a volume of 0.5 ml. Animals were allowed food 4 hours later. Mortality of mice was followed for 48 hours, as previous results have shown that control mice (given saline rather than the composition before acetaminophen) either die within this period or fully recover and survive indefinitely.
# Differences in survival between groups of mice were compared by χ^2-test. Plasma AST and ALT concentrations are expressed as means±SEM and differences between groups were compared by Student's t-test.
# [2] = system: mice with AAP-induced hepatotoxicity; assay: Plasma aminotransferase levels in mice with AAP-induced hepatotoxicity; assay type: in vivo, CBA/H Zgr inbred mice
# Protocol: Plasma aspartate aminotransferase (AST) and alanine aminotransferase (ALT) were measured 24 hours after the administration of acetaminophen, because it has been observed that the levels of AST and ALT are at their peak values at this time. Mice were given 250 units of […] intraoeritoneally 15 minutes before bleeding. Blood was obtained by puncture of medial orbital angle using glass capillary tubes. Plasma was stored at −20° C. until aminotransferase determination, which was carried out using standard laboratory techniques (see Expert Panel on Enzymes, Committee on Standards, Clin. Chem. Biochem. 1977; 15: 39-51 and Clin. Chem. Acta. 1980; 105: 147F-54F). Differences in survival between groups of mice were compared by χ^2-test. Plasma AST and ALT concentrations are expressed as means±SEM and differences between groups were compared by Student's t-test. The effect of a Compound of the invention (Hymecromone) was investigated on plasma aminotransferase levels in mice with AAP-induced hepatotoxicity. Hymecromone (250 mg/kg) or a control of saline was given to mice 30 minutes before administration of acetaminophen (220 mg/kg). Plasma AST and ALT were measured 24 hours after acetaminophen administration. […] As shown, in comparison with normal mice, the administration of acetaminophen increased AST and ALT by approximately 19 and 100 times, respectively.
# [3] = Table 1, Hymecromone 50 mg/kg i.p. 30 minutes before AAP 300 mg/kg
# [4] = Table 1, Hymecromone 250 mg/kg i.p. 30 minutes before AAP 300 mg/kg, P < 0.01 vs saline
# [5] = Table 2, Hymecromone 50 mg/kg i.p. 30 minutes before AAP 250 mg/kg
# [6] = Table 2, Hymecromone 250 mg/kg i.p. 30 minutes before AAP 250 mg/kg, P < 0.001 vs saline
# [7] = Table 3, Hymecromone 250 mg/kg i.p. 30 minutes before AAP 250 mg/kg, P < 0.001 vs saline
# [8] = Hymecromone 250 mg/kg, AAP 220 mg/kg, P<0.005
# [9] = plasma, Hymecromone 250 mg/kg 30 minutes before AAP 220 mg/kg, 24 hours after AAP, mean, n = 16, P < 0.005 vs saline
smiles,measurement,setting,value
"Cc1cc(=O)oc2cc(O)ccc12 [Hymecromone, 7-hydroxy-4-methylcoumarin]",No of dead mice/Total No of mice,"[1]; Table 1, Hymecromone 10 mg/kg i.p. 30 minutes before AAP 300 mg/kg intragastrically",12/12
same,Mortality (%),"[1]; Table 1, Hymecromone 10 mg/kg i.p. 30 minutes before AAP 300 mg/kg",100%
same,Mortality (%),[1]; [3],92%
same,No of dead mice/Total No of mice,[1]; [3],11/12
same,Mortality (%),[1]; [4],29%
same,No of dead mice/Total No of mice,[1]; [4],2/7
same,mortality in comparison with control mice given saline,"[1]; Table 1 experiment, P<0.01",significantly reduced the mortality
same,Mortality (%),[1]; [5],(93) %
same,No of dead mice/Total No of mice,[1]; [5],9/13
same,Mortality (%),[1]; [6],(0)^c %
same,No of dead mice/Total No of mice,[1]; [6],0/13
same,Mortality (%),[1]; [7],(0)^c %
same,No of dead mice/Total No of mice,[1]; [7],0/15
same,mortality in comparison with control mice given saline,"[1]; two further experiments (Tables 2 and 3), P<0.001",statistically significantly reduced the mortality
same,reduction of the increase of ALT in comparison with control mice pretreated with saline,[2]; [8],three times
same,reduction of the increase of AST in comparison with control mice pretreated with saline,[2]; [8],five times
same,ALT,[2]; [9],776 U/L
same,AST,[2]; [9],267 U/L
